Data reported in article PMC7076515, “Impact of Mucin on Drug Diffusion: Development of a Straightforward In Vitro Method for the Determination of Drug Diffusivity in the Presence of Mucin” (Pharmaceutics, 2020).
“Also recorded” adds a separate entry of the source.

What was measured:
[1] = tested on: mucin from porcine stomach type III; assay: UV-visible localized spectroscopy: diffusion from mucin dispersions into water (Drel), and of mucin itself; format: physicochemical; conditions: compared to the absence of mucin
Description: Mucin type III from porcine stomach was dispersed in PBS 65 mOsm/kg (pH 7.4) to obtain 0.1, 0.3 and 0.6% (w/w) mucin dispersions.
In brief, Fick’s second law of diffusion was analytically solved (Equation (1)) assuming times (t) and positions (x) such that t ≪ h2/D and x ≪ h (where h is the full length of the cuvette occupied by water, 3.30 cm). […] (1) c(x,t)=2A/π e^−x^2/2σ^2+4Dt/2σ^2+4Dt

[2] = UV-visible localized spectroscopy: drug diffusion coefficient in water (D0); conditions: no mucin; drug in PBS 65 mOsm/kg pH 7.4 injected into water; 23–25 °C; average of two parallel experiments
[3] = design: method as in Drugbank [15]; conditions: ref Drugbank [15], cited from earlier work
[4] = tested on: purified gastric mucin type II; design: method as in PMID 9188047, PMID 9487548; conditions: ref [24],[25]; cited from earlier work
[5] = design: method as in PMID 9188047, PMID 9487548; conditions: ref [24],[25]; cited from earlier work

Row | Structure (SMILES) | D Reduction (%) ([1]; MUC 0.0%) | D Reduction (%) ([1]; MUC 0.1% w/w) | D Reduction (%) ([1]; MUC 0.3% w/w) | D Reduction (%) ([1]; MUC 0.6% w/w) | D0 (diffusion coefficient in plain water) [2] | Charge at pH 7.4 [3] | pKa [3] | Diffusion in purified gastric mucin versus phosphate buffer [4] | Diffusion in native pig intestinal mucus [5]
1 | CC(C)NCC(O)COc1ccc(CC(N)=O)cc1 (stereo not shown) [ATN, Atenolol] | 0% | 24% | 47% | 63% | 5.81 10^−6 cm^2/s | – | – | – | –
2 | COc1ccc2cc([C@H](C)C(=O)O)ccc2c1 [NPR, naproxen] | 0% | 25% | 53% | 65% | 8.02 10^−6 cm^2/s | – | – | – | –
3 | C[C@]12CCC(=O)C=C1CC[C@@H]1[C@@H]2[C@@H](O)C[C@@]2(C)[C@H]1CC[C@]2(O)C(=O)CO [HYD, hydrocortisone] | 0% | 17% | 36% | 37% | 6.44 10^−6 cm^2/s | 0 | 12.6 | comparable to the one in phosphate buffer; also recorded: not hindered compared to phosphate buffer | impaired to a higher extent; also recorded: slow down the diffusion
4 | Cn1c(=O)c2c(ncn2C)n(C)c1=O [CAF, caffeine] | 0% | 33% | 51% | 67% | 9.07 10^−6 cm^2/s | 0 | – | – | –
